The results in this text go back to the supplement of paper PMC10307832.

What all share (test): relative viability (nuclei count vs DMSO), 5 days (fraction); higher = more cells survive
Compound in assay [1]: C1=CC(=CC=C1C2=CC(=C(S2)NC(=O)N)C(=O)N)F [TPCA-1] + CC(=O)c1c(C)c2cnc(Nc3ccc(N4CCNCC4)cn3)nc2n(C2CCCC2)c1=O [Palbociclib] (partner 0.5 µM)
The method, boiled down:
(§1)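 A single step with final 0.05% Triton X-100, 1% formaldehyde and 1 ug/ml Hoechst fixed the cells and stained nuclei 5 days after treatment. Lung cancer cell lines in 1536-well plates had been treated by pin tool the day after seeding with one drug alone or a fixed anchor-drug dose plus five library-drug doses (not always all listed) in √10 steps, and nuclei were counted on 4× images. Relative viability is the ratio of nuclei in treated wells to nuclei in vehicle wells, taken as the median of duplicate plates.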

Compound in assay [2]: C1/C(=C\C2=CC=CS2)/C(=O)/C(=C/C3=CC=CS3)/C1 + O=C(c1cc(Cc2n[nH]c(=O)c3ccccc23)ccc1F)N1CCN(C(=O)C2CC2)CC1 [Olaparib] (partner 8 µM)
The method, boiled down: as §1

Compound in assay [3]: C[C@]12O[C@H](C[C@]1(O)CO)n1c3ccccc3c3c4c(c5c6ccccc6n2c5c31)CNC4=O [Lestaurtinib] + CC(=O)c1c(C)c2cnc(Nc3ccc(N4CCNCC4)cn3)nc2n(C2CCCC2)c1=O [Palbociclib] (partner 0.5 µM)
The method, boiled down: as §1

Compound in assay [4]: C1=CC(=CC=C1C2=CC(=C(S2)NC(=O)N)C(=O)N)F [TPCA-1] + C[C@]1(O)C[C@@H](c2nc(-c3ccc4ccc(-c5ccccc5)nc4c3)c3c(N)nccn32)C1 [Linsitinib] (partner 1 µM)
The method, boiled down:
as §1

Consider UMC-11, for which the relative viability was 0.354 in assay [1] (first compound 0.04 µM); 0.316 in assay [1] (first compound 0.1265 µM); 0.299 in assay [1] (first compound 0.4 µM); 0.408 in assay [1] (first compound 1.265 µM); 0.289 in assay [1] (first compound 4 µM); 0.462 in assay [2] (first compound 0.2 µM). Further, the relative viability amounted to 0.347 in assay [2] (first compound 0.6325 µM); 0.405 in assay [2] (first compound 2 µM); 0.475 in assay [2] (first compound 6.325 µM); 0.391 in assay [2] (first compound 20 µM); 0.344 in assay [3] (first compound 0.005 µM); 0.294 in assay [3] (first compound 0.01581 µM). Further, the relative viability was found to be 0.33 in assay [3] (first compound 0.05 µM); 0.215 in assay [3] (first compound 0.1581 µM); 0.198 in assay [3] (first compound 0.5 µM); 1.03 in assay [4] (first compound 0.04 µM); 1 in assay [4] (first compound 0.1265 µM); 1.04 in assay [4] (first compound 0.4 µM). The relative viability in assay [4] (first compound 1.265 µM) turned out to be 0.918; in assay [4] (first compound 4 µM), 0.615.
